Patent US9617311B2, “Use of PEDF-derived polypeptides for promoting stem cells proliferation and wound healing” (Mackay Memorial Hospital, priority 2011, dated 2017)

Tests used:
LSCs in the limbus = assay: Limbal epithelium thickness and ΔNp63α-positive LSC level on day 5 post corneal wounding; format: in vivo, C57BL/6 mice; details: day 5 post-wounding; for thickness of the limbus / limbal epithelia: compared with normal unwounded eye; for levels of ΔNp63α-positive LSCs in limbus: control ointment 38.9±2.8%, normal unwounded eye 74.8±6.3%
Source text: FIG. 4A provides histologic photographs (left panels, Hematoxylin and Eosin (H&E) staining, magnification, ×400), immunofluorescence microscopy photographs (middle panels, magnification, ×1000), and merged photographs (right panels); together, they illustrate layers of stratified limbal epithelium of mice at day 5 post-corneal injury according to the previous example of the present disclosure. […] Normal indicates uninjured eye. Cornea of normal eye that has no ΔNp63α-positive cell acted as ΔNp63α negative immunostaining control. FIG. 4B is a histogram illustrating levels of ΔNp63α-positive cells at limbus. Results of immunofluorescence were evaluated from 6 sections per mouse cornea, and 6 mice at each treatment. A labeling index was computed as the number of labeled cells divided by the total number of cells observed by a Hoechst 33258 fluorescent nuclear stain. P<0.005 versus control eye.
De-paraffinized tissue sections or 4% paraformaldehyde-fixed LSCs were blocked with 10% goat serum and 5% BSA in PBST (PBS containing 0.1% Tween-20) for 1 hour. Staining was done using primary antibodies against ΔNp63α (1:150 dilution), BrdU (1:250 dilution), and keratin-3 (1:250 dilution) at 37° C. for 2 hours, followed by incubation with the appropriate rhodamine- or FITC-conjugated donkey IgG (1:500 dilution) for 1 hour at RT. Nuclei were identified by counterstaining with Hoechst 33258 for 7 minutes. Images were captured using a Zeiss epifluorescence microscope with a CCD camera and photographs were taken by using the Axiovert software.
(§1) The experiments were performed using eight-week-old female C57BL/6 mice, and the procedures were approved by the Mackay Memorial Hospital Review Board for animal investigation. Animals were anesthetized by an intraperitoneal injection of a mixture of zoletil (6 mg/kg) and xylazine (3 mg/kg). One filter paper (0.9 mm diameter) soaked with 20% ethanol was placed on the central cornea of right eye for one minute and then irrigated extensively with PBS. Subsequently, mechanical epithelial scrape was performed using a punch under a dissection microscope to create a circular injury (2 mm diameter) at the entire corneal region of the mouse eye without encroaching the corneal stroma, limbus or conjunctiva.
(§2) Each synthetic peptide (the 39-mer, 34-mer, 29-mer, 25-mer, 20-mer, 18-mer, Mo 29-mer or Mo 20-mer) was reconstituted in DMSO as stock (5 mM) and mixed with TOBREX® eye ointment (Alcon; containing 0.3% Tobramycin and 0.5% Chlorobutanol) to a concentration 50 μM. In each of the treatment group (n=6-10), the right eye was treated with 20 μl eye ointment containing the synthetic peptide once a day after the scrape injury. In the control group (n=20), right eye was treated with 20 μl of eye ointment mixed with vehicle DMSO. Wound size was determined by staining with topical fluorescein (Fluor-I-Strip, Ayerst Laboratories, Philadelphia, Pa.) and photographed with a digital camera. The area of defect was quantified from the photographs using a computer-assisted image analyzer (Adobe Photoshop CS3 10.0) and was calculated as the percentage of residual epithelial defect at each time point/initial wound area.
On average, the levels of ΔNp63α-positive LSCs in limbus of normal unwounded eye is 74.8±6.3%; whereas the levels of ΔNp63α-positive LSCs in corneal wounded eyes treated with control, 29-mer, 20-mer, 18-mer and Mo 20-mer ointment were 38.9±2.8%, 77.0±4.1%, 73.1±8.6%, 39.4±2.6%, and 76.3±6.2% respectively (FIG. 4B). Taken together, 29-mer or 20-mer treatment can activate LSCs in vivo coincidently with more prominent corneal re-epithelialization than corneal regeneration by native progress.

corneal wound = assay: Corneal wound healing in mice, fluorescein staining; format: in vivo, C57BL/6 mice; details: for corneal re-epithelialization after 48 hours: 20 μl eye ointment with 50 μM peptide once a day, 2 mm wound; for residual epithelial defect, percentage of the original wound: 50 μM peptide eye ointment once a day
Method: as §1, §2
To investigate the effect of PEDF-derived short peptides on corneal wound healing in mice, corneal wound was created by a circular punch (2 mm diameter), then control eye-ointment or eye-ointment containing the short synthetic PEDF peptide(s) of this invention was applied to the wounded eye, and wound healing was subsequently evaluated by fluorescein staining. No significant differences in the size of the initial abrasion were noted between synthetic PEDF peptide-treated and control mice.

[1] = tested on: full-thickness skin excisional wounds; assay: Skin wound healing in mice, histology with Masson's trichrome; format: in vivo, C57L/B6 mice; details: for residual epithelial defects, Masson's trichrome sections: day 7 after trauma, control ointment 43.5±6.5%; for area of GT (granulation tissue), folds over the control group / area of HE tissue, folds over that of the control group / residual epithelial defect, Masson's trichrome sections: day 4 after trauma; for area of GT (granulation tissue), folds over the control group / area of HE tissue, folds over that of the control group: edge of the wound; for residual epithelial defect, Masson's trichrome sections: sections of the middle of the wounds, control 63.8±5.8%
Source text: FIGS. 7A to 7E provide quantification of wound healing at day 4. […] Arrowheads (▾) and arrows (↓) denote initial wound margins and the foremost tips of the hyperproliferative epithelium (HE; red color), respectively. Data are representative of 10-16 wounds (2 wounds per mouse) in each group. *P<0.02 versus control wound. FIG. 7B is a histogram illustrating the residual epithelial defect (%) in mice from each treatment group; only sections of the middle of the wounds were used for quantification. Data are shown as mean±SE. FIG. 7C provides representative photographs of wound edge. GT: granulation tissue (blue color); Es: eschar (deep-red). […] FIGS. 7D and 7E are histograms providing quantifications of the areas of HE and GT using Adobe Photoshop CS3 10.0. *P<0.02 versus control wound.
FIGS. 8A and 8B provide quantification of wound healing at day 7. […] Arrowheads (▾) and arrows (↓) denote initial wound margins and the foremost tips of the hyperproliferative epithelium, respectively. FIG. 8B is a histogram illustrating the residual epithelial defect (%) in mice from each treatment group; only sections of the middle of the wounds were used for quantification. Data are shown as mean±SE. *P<0.05 versus control wound.
To perform full-thickness skin excision, 8- to 10-week-old C57L/B6 mice were respectively anesthetized by an intraperitoneal injection of a mixture of zoletil (6 mg/kg) and xylazine (3 mg/kg). Two full-thickness skin excisional wounds, 4 mm in diameter were made on either side of the dorsal midline using Sklar Tru-Punch disposable biopsy punch (Sklar, West Chester, Pa., USA). In each treatment group (n=6), the skin wound was treated with 25 μl skin ointment (containing 50 μM synthetic peptide and 0.006 μl DMSO vehicle) once daily after the skin scraping. In the control group (n=6), skin wound was treated with 25 μl of skin ointment with equal concentration of DMSO. Each gram of the above skin ointment contains 5 mg neomycin sulfate and 12.5 mg Bacitracin Zinc. Wounds were left uncovered and harvested 4 and 7 days after injury. Mice were housed individually during the healing period.
For histological analysis the complete wounds including 2 mm of the epithelial margins was isolated, bisected, fixed overnight in 4% PFA in PBS, and embedded in paraffin. Sections (5 μm) from the middle of the wound were stained using the Masson's trichrome procedure as described by the manufacturer, in which the epithelium was stained red and connective tissue was stained blue. Photographs were taken using a Leica DC 500 camera (Leica Microsystems).
To further confirm the efficacy of 29-mer and 20-mer on skin wound repair, skin sections from day 4 after trauma were stained using the Masson's trichrome. […] The residual epithelial defect of 29-mer and 20-mer-treated groups were 52.7±6.2% and 49.7±5.6%, respectively; as compared to control animals of 63.8±5.8% (FIG. 7B). In addition, 29-mer treatment elevated the thicknesses of hyper-proliferative epithelial (HE) tissue and granulation tissue (GT) around the edge of the wound (FIG. 7C).
Masson's trichrome was used to stain skin sections obtained from day 7 after trauma for the measurement of the wound closure.

Q: Which results are given for “SLGAEHRTESVIHRALYYDL [Mo 20-mer, synthetic peptide derived from mouse PEDF]”?
A: thickness of the limbus / limbal epithelia (LSCs in the limbus): returned to full-thickness of stratified layers; levels of ΔNp63α-positive LSCs in limbus (LSCs in the limbus): 76.3±6.2%; corneal re-epithelialization after 48 hours (corneal wound): complete corneal re-epithelialization; residual epithelial defect, percentage of the original wound (corneal wound; 24 hours, control 84.9±5.1%): 43.9±7.6%; residual epithelial defect, percentage of the original wound (corneal wound; 48 hours, control 39.5±3.1%): 6.2±3.5%

Q: Which results are given for “SLGAEHRTESVIHRALYYDLITNPDIHST [Mo 29-mer, synthetic peptide derived from mouse PEDF]”?
A: residual epithelial defects, Masson's trichrome sections [1]: 17.2±7.3%; corneal re-epithelialization after 48 hours (corneal wound): complete corneal re-epithelialization; residual epithelial defect, percentage of the original wound (corneal wound; 24 hours, control 84.9±5.1%): 33.8±5.2%; residual epithelial defect, percentage of the original wound (corneal wound; 48 hours, control 39.5±3.1%): 4.6±2.3%

Q: What does the source list for “SLGAEQRTESIIHRALYYDLISSPDIHGT [29-mer, short synthetic PEDF peptide derived from the 39-mer]”?
A: area of GT (granulation tissue), folds over the control group [1]: 1.45±0.23 folds; area of HE tissue, folds over that of the control group [1]: 1.41±0.25 folds; residual epithelial defect, Masson's trichrome sections [1]: 52.7±6.2%; residual epithelial defects, Masson's trichrome sections [1]: 17.9±3.3%; thickness of the limbus / limbal epithelia (LSCs in the limbus): returned to full-thickness of stratified layers; levels of ΔNp63α-positive LSCs in limbus (LSCs in the limbus): 77.0±4.1%; corneal re-epithelialization after 48 hours (corneal wound): complete corneal re-epithelialization; residual epithelial defect, percentage of the original wound (corneal wound; 24 hours, control 84.9±5.1%): 36.5±6.4%; residual epithelial defect, percentage of the original wound (corneal wound; 48 hours, control 39.5±3.1%): 3.7±2.9%

Q: Which results are given for EQRTESIIHRALYYDLIS [18-mer]?
A: thickness of the limbus / limbal epithelia (LSCs in the limbus): thinner; levels of ΔNp63α-positive LSCs in limbus (LSCs in the limbus): 39.4±2.6%; corneal re-epithelialization after 48 hours (corneal wound): incompletely healed wounds

Q: With “SLGAEQRTESIIHRALYYDL [20-mer, synthetic peptide identical to residues 11-30 of the 39-mer]” as the sequence, how does the “area of GT (granulation tissue), folds over the control group” value [1] read?
A: 1.37±0.17 folds

Q: And the “area of HE tissue, folds over that of the control group” value [1]?
A: 1.32±0.21 folds

Q: What about the “residual epithelial defect, Masson's trichrome sections” value [1] of the same sequence?
A: 49.7±5.6%

Q: What about the “residual epithelial defects, Masson's trichrome sections” value [1] of the same sequence?
A: 20.8±6.1%

Q: And the “thickness of the limbus / limbal epithelia” value (LSCs in the limbus)?
A: returned to full-thickness of stratified layers

Q: What about the “levels of ΔNp63α-positive LSCs in limbus” value (LSCs in the limbus) of the same sequence?
A: 73.1±8.6%

Q: And the “corneal re-epithelialization after 48 hours” value (corneal wound)?
A: complete corneal re-epithelialization

Q: And the “residual epithelial defect, percentage of the original wound” value (corneal wound; 24 hours, control 84.9±5.1%)?
A: 42.2±4.3%

Q: What about the “residual epithelial defect, percentage of the original wound” value (corneal wound; 48 hours, control 39.5±3.1%) of the same sequence?
A: 5.0±3.7%
